From patent US20210253568A1, “AZAINDOLE DERIVATIVES AS RHO-KINASE INHIBITORS” (CHIESI FARMACEUTICI S.p.A., priority 2018, published 2021)

Tests used:
ROCK 2 = ROCK 2 (Homo sapiens, UniProt O75116); experiment: In vitro Rho kinase inhibitory activity assay (ADP-Glo), Rho kinase 2; format: biochemical; settings: Ki by Cheng-Prusoff from IC50; 10 μM ATP, 25° C., expressed as range of activity
Experimental: (§1) The effectiveness of compounds of the present invention to inhibit Rho kinase activity can be determined in a 10 μl assay containing 40 mM Tris pH7.5, 20 mM MgCl2 0.1 mg/mi BSA, 50 μM DTT and 2.5 μM peptide substrate (Myelin Basic Protein) using an ADP-Glo kit (Promega). Compounds were dissolved in DMSO such that the final concentration of DMSO was 1% in the assay. All reactions/incubations are performed at 25° C. Compound (2 ul) and either Rho kinase 1 or 2 (4 μl) were mixed and incubated for 30 mins. Reactions were initiated by addition of ATP (4 μl) such that the final concentration of ATP in the assay was 10 μM. After a 1 hour incubation 10 μl of ADP-Glo Reagent was added and after a further 45 minute incubation 20 ul of Kinase Detection Buffer was added and the mixture incubated for a further 30 minutes. The luminescent signal was measured on a luminometer. […] Compounds were tested in dose-response format and the inhibition of kinase activity was calculated at each concentration of compound. To determine the IC50 (concentration of compound required to inhibit 50% of the enzyme activity) data were fit to a plot of % inhibition vs Log10 compound concentration using a sigmoidal fit with a variable slope and fixing the maximum to 100% and the minimum to 0%. To determine the Ki values the Cheng-Prusoff equation was utilized (Ki=IC50/(1+[S]/Km).

ROCK 1 = ROCK 1 (Homo sapiens, UniProt Q13464); experiment: In vitro Rho kinase inhibitory activity assay (ADP-Glo), Rho kinase 1; format: biochemical; settings: Ki by Cheng-Prusoff from IC50; 10 μM ATP, 25° C., expressed as range of activity
Experimental: as §1

Sequence of ROCK 2 (O75116 whole entry): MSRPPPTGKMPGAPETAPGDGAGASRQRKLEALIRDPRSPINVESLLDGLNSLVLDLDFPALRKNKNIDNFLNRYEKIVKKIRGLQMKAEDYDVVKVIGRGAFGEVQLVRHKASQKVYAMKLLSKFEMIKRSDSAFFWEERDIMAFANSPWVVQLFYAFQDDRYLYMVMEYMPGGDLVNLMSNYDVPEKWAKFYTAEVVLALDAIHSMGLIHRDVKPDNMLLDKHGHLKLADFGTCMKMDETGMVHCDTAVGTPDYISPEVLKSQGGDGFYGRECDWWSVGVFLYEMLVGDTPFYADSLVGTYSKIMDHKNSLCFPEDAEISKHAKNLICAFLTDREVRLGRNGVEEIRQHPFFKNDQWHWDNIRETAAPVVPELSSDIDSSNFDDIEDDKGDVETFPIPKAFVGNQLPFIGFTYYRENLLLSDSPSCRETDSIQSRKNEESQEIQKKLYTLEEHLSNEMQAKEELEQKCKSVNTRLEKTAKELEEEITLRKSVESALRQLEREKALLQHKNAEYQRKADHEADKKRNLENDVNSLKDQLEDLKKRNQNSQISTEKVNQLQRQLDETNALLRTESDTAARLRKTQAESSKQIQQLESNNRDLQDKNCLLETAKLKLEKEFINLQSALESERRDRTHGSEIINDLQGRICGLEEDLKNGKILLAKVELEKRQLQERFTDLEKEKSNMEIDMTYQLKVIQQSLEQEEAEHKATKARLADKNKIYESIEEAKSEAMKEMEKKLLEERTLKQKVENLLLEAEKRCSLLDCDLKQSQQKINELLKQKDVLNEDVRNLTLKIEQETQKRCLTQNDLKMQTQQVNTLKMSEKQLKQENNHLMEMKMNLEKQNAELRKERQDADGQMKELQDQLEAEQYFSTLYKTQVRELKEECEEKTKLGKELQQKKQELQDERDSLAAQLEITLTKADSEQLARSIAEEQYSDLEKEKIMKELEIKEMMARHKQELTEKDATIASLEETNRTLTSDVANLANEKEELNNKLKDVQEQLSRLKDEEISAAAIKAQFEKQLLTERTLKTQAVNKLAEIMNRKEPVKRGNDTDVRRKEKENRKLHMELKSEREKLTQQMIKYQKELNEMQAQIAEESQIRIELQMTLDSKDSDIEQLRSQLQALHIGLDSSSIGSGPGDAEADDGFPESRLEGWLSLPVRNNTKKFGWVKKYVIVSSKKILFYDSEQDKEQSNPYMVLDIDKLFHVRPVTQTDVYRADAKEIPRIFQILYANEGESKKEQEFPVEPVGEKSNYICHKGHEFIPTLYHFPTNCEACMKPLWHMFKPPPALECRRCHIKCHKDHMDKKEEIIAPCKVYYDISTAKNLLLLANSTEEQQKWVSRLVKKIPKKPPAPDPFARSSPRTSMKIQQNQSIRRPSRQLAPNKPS
Sequence of ROCK 1 (Q13464 whole entry): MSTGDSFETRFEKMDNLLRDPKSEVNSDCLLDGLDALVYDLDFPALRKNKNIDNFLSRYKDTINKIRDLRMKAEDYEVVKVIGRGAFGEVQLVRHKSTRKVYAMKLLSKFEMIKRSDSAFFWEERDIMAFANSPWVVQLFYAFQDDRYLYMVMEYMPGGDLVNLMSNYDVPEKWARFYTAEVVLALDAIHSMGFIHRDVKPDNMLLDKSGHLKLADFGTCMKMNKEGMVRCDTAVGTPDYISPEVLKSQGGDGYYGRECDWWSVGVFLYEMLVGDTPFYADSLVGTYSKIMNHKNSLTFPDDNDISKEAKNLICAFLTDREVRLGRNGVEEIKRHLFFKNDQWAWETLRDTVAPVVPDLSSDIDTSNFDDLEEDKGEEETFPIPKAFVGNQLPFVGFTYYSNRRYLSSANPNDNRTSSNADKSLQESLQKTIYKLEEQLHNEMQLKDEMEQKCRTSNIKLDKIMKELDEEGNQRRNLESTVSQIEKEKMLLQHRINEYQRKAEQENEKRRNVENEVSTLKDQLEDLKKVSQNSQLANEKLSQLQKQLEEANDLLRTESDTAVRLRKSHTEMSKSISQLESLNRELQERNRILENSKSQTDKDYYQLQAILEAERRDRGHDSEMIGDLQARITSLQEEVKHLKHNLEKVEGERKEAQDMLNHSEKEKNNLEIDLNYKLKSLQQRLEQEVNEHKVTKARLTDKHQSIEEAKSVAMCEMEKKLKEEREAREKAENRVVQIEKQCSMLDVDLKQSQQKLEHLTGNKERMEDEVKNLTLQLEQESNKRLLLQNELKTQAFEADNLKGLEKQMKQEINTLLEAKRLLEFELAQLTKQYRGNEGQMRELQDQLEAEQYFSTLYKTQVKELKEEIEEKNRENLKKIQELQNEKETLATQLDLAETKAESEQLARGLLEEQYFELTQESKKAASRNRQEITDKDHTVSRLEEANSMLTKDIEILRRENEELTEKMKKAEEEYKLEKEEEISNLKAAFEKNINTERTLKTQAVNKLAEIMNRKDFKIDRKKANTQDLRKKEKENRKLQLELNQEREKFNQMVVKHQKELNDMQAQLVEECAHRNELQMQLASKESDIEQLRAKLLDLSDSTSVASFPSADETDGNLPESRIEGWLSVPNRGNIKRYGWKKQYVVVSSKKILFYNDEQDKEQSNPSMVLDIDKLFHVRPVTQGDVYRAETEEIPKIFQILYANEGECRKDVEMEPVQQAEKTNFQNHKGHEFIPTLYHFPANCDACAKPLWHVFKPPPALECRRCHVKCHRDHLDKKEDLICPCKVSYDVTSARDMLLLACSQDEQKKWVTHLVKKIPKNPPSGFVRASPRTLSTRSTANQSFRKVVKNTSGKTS

Row | Ki (ROCK 2) [nM] | Ki (ROCK 1) [nM] | SMILES
1 | < 3 | < 3 | c1nc(NCc2nccs2)cc(-c2c[nH]c3nccc(Oc4ccc5c(c4)CNCC5)c23)n1 [Example 30, 6-(4-((1,2,3,4-tetrahydroisoquinolin-7-yl)oxy)-1H-pyrrolo[2,3-b]pyridin-3-yl)-N-(thiazol-2-ylmethyl)pyrimidin-4-amine]
2 | < 3 | < 3 | NCc1ccc(Oc2ccnc3[nH]cc(-c4cc(NCc5ccccc5)ncn4)c23)c(F)c1 [Example 31, 6-(4-(4-(aminomethyl)-2-fluorophenoxy)-1H-pyrrolo[2,3-b]pyridin-3-yl)-N-benzylpyrimidin-4-amine]
3 | < 3 | 3 to 30 | NCc1ccc(Oc2ccnc3[nH]cc(-c4ccnc(NCc5ccccc5)n4)c23)c(F)c1 [Example 32, 4-(4-(4-(aminomethyl)-2-fluorophenoxy)-1H-pyrrolo[2,3-b]pyridin-3-yl)-N-benzylpyrimidin-2-amine]
4 | < 3 | 3 to 30 | NCc1ccc(Oc2ccnc3[nH]cc(-c4ccnc(NCc5ccccc5)c4)c23)c(F)c1 [Example 33, 4-(4-(4-(aminomethyl)-2-fluorophenoxy)-1H-pyrrolo[2,3-b]pyridin-3-yl)-N-benzylpyridin-2-amine]
5 | < 3 | 3 to 30 | NCc1ccc(Oc2ccnc3[nH]cc(-c4cnc(NC(=O)Cc5ccccc5)s4)c23)cc1 [Example 34, N-(5-(4-(4-(aminomethyl)phenoxy)-1H-pyrrolo[2,3-b]pyridin-3-yl)thiazol-2-yl)-2-phenylacetamide]
6 | < 3 | < 3 | c1cc(-c2c[nH]c3nccc(Oc4ccc5c(c4)CNCC5)c23)cc(NCc2nccs2)n1 [Example 35, 4-(4-((1,2,3,4-tetrahydroisoquinolin-7-yl)oxy)-1H-pyrrolo[2,3-b]pyridin-3-yl)-N-(thiazol-2-ylmethyl)pyridin-2-amine]
7 | < 3 | < 3 | c1cc(-c2c[nH]c3nccc(Oc4ccc5c(c4)CNCC5)c23)cc(NCC2CC2)n1 [Example 36, N-(cyclopropylmethyl)-4-(4-((1,2,3,4-tetrahydroisoquinolin-7-yl)oxy)-1H-pyrrolo[2,3-b]pyridin-3-yl)pyridin-2-amine]
8 | < 3 | 3 to 30 | Cc1ccc(CNc2cc(-c3c[nH]c4nccc(Oc5ccc6c(c5)CNCC6)c34)ccn2)nc1 [Example 37, N-((5-methylpyridin-2-yl)methyl)-4-(4-((1,2,3,4-tetrahydroisoquinolin-7-yl)oxy)-1H-pyrrolo[2,3-b]pyridin-3-yl)pyridin-2-amine]
9 | < 3 | < 3 | c1cc(-c2c[nH]c3nccc(Oc4ccc5c(c4)CNCC5)c23)cc(NCC2CCOCC2)n1 [Example 38, N-((tetrahydro-2H-pyran-4-yl)methyl)-4-(4-((1,2,3,4-tetrahydroisoquinolin-7-yl)oxy)-1H-pyrrolo[2,3-b]pyridin-3-yl)pyridin-2-amine]
10 | < 3 | 3 to 30 | O=C(Nc1cc(-c2c[nH]c3nccc(Oc4ccc5c(c4)CNCC5)c23)ccn1)C1CC1 [Example 39, N-(4-(4-((1,2,3,4-tetrahydroisoquinolin-7-yl)oxy)--1H-pyrrolo[2,3-b]pyridin3-yl)pyridin-2-yl)cyclopropanecarboxamide]
11 | < 3 | < 3 | O=C(Nc1cc(-c2c[nH]c3nccc(Oc4ccc5c(c4)CNCC5)c23)ccn1)C1CCCCC1 [Example 40, N-(4-(4-((1,2,3,4-tetrahydroisoquinolin-7-yl)oxy)-1H-pyrrolo[2,3-b]pyridin-3-yl)pyridin-2-yl)cyclohexanecarboxamide]
12 | < 3 | < 3 | O=C(Nc1cc(-c2c[nH]c3nccc(Oc4ccc5c(c4)CNCC5)c23)ccn1)C1CCOCC1 [Example 41, N-(4-(4-((1,2,3,4-tetrahydroisoquinolin-7-yl)oxy)-1H-pyrrolo[2,3-b]pyridin-3-yl)pyridin-2-yl)tetrahydro-2H-pyran-4-carboxamide]
